In publication PMC6704710, “Preclinical evaluation of 3D185, a novel potent inhibitor of FGFR1/2/3 and CSF-1R, in FGFR-dependent and macrophage-dominant cancer models” (Journal of Experimental & Clinical Cancer Research : CR, 2019):

Assays:
Assay in all cases: Eurofins kinase panel
Assay type in all cases: biochemical
Settings in all cases: read-out: Inhibition rate (%)
PKCα(h) = target: T1, PKCα(h) (Homo sapiens, UniProt P17252)
T1 construct: purchased Eurofins (KinaseProfiler)

FAK(h) = target: T2, FAK(h) (Homo sapiens, UniProt Q05397)
T2 construct: purchased Eurofins (KinaseProfiler)
T2 sequence (Q05397 whole entry): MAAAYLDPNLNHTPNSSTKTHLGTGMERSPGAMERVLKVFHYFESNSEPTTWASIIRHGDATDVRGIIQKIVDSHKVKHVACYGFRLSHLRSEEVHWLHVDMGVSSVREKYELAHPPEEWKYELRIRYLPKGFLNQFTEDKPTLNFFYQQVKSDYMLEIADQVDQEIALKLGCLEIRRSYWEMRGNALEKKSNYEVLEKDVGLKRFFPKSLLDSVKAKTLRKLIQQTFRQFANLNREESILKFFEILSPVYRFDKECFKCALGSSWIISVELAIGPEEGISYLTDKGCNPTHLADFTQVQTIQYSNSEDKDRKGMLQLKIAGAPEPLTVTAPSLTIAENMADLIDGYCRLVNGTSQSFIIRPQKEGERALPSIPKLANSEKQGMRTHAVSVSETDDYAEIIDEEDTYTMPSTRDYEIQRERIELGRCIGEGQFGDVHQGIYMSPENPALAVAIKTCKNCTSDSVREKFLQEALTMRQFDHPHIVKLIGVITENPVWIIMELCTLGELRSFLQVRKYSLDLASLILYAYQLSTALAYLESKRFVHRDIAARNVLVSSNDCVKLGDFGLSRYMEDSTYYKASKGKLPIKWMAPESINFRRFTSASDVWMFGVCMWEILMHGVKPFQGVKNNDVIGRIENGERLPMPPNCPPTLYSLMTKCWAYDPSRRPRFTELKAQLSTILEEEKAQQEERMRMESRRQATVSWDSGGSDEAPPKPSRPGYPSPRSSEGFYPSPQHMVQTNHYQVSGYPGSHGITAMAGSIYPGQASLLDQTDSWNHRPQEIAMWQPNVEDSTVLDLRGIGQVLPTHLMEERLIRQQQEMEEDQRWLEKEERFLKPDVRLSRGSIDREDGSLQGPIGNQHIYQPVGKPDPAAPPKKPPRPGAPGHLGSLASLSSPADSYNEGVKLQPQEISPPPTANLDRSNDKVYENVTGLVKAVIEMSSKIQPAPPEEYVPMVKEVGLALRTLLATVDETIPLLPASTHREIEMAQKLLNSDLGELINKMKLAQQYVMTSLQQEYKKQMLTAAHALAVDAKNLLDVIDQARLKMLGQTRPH

PKD2(h) = target: T3, PKD2(h) (Homo sapiens, UniProt Q9BZL6)
T3 construct: purchased Eurofins (KinaseProfiler)
T3 sequence (Q9BZL6 1-878): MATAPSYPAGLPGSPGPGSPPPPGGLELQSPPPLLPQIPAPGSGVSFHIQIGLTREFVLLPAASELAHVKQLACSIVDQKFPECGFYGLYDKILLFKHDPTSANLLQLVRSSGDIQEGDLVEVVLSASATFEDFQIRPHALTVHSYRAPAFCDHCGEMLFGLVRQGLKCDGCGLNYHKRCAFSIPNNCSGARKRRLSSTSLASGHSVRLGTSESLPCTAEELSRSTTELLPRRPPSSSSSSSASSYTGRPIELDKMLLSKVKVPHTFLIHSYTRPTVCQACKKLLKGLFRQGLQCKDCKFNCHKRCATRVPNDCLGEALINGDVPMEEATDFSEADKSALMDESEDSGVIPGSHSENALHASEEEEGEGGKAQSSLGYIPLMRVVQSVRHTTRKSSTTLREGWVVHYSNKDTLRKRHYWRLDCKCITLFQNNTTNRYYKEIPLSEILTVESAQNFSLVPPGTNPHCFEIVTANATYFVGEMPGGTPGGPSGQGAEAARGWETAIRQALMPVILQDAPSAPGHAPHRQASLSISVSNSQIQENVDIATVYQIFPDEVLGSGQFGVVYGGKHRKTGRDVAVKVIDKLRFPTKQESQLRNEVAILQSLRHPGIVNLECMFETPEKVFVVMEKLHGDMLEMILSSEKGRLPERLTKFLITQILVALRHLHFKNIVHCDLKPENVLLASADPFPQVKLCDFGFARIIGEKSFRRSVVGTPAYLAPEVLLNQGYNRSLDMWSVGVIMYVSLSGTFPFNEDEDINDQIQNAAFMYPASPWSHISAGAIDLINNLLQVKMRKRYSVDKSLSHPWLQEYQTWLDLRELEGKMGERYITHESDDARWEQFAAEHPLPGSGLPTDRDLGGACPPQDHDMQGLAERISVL

PI3 Kinase (p120γ)(h) = target: T4, PI3 Kinase (p120γ)(h) (Homo sapiens, UniProt P48736)
T4 construct: purchased Eurofins (KinaseProfiler)
T4 sequence (P48736 whole entry): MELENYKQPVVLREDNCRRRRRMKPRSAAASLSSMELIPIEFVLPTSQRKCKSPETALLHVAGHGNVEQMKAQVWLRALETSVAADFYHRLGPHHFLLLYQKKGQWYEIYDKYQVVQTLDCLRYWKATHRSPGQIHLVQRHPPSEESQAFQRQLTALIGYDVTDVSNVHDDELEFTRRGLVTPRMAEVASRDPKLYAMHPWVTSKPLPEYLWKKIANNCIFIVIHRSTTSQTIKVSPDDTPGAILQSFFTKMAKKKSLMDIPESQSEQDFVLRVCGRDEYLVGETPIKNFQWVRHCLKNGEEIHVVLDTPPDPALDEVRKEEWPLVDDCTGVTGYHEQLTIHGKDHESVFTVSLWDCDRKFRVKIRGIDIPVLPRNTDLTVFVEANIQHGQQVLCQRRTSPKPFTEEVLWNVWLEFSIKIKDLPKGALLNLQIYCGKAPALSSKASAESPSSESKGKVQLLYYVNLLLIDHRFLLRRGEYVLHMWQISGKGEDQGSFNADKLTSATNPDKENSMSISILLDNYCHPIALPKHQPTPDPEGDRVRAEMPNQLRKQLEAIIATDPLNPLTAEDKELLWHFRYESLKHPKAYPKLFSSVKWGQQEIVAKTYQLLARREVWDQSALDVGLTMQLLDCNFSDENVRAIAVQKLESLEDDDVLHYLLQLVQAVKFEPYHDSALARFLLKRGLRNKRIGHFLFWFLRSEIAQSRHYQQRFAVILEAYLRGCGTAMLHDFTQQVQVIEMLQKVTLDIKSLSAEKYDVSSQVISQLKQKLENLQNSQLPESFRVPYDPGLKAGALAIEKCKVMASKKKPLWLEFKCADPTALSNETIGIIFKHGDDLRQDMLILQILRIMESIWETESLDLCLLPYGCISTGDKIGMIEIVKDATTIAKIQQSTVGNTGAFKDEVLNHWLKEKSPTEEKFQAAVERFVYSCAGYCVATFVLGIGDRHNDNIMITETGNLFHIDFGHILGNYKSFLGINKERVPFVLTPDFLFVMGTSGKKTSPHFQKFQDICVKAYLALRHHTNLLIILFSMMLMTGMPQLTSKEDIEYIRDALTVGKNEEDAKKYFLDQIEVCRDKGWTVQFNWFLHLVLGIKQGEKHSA

CaMKIIδ(h) = target: T5, CaMKIIδ(h) (Homo sapiens, UniProt Q13557)
T5 construct: purchased Eurofins (KinaseProfiler)
T5 sequence (Q13557 whole entry): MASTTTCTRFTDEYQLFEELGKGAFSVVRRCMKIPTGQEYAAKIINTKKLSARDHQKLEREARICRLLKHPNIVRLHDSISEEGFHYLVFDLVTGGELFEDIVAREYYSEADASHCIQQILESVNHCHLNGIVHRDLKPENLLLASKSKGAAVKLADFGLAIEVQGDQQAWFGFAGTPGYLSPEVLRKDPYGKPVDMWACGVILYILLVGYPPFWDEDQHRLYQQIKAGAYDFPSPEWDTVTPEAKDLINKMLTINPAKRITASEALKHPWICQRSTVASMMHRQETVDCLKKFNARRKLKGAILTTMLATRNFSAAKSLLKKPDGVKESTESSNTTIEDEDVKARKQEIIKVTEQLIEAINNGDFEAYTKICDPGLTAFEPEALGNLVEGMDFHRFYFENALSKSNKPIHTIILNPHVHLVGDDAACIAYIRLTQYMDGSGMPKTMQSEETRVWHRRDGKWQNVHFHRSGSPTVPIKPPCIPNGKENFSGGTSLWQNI

Flt3(h) = target: T6, Flt3(h) (Homo sapiens, UniProt P36888)
T6 construct: purchased Eurofins (KinaseProfiler)
T6 sequence (P36888 27-993): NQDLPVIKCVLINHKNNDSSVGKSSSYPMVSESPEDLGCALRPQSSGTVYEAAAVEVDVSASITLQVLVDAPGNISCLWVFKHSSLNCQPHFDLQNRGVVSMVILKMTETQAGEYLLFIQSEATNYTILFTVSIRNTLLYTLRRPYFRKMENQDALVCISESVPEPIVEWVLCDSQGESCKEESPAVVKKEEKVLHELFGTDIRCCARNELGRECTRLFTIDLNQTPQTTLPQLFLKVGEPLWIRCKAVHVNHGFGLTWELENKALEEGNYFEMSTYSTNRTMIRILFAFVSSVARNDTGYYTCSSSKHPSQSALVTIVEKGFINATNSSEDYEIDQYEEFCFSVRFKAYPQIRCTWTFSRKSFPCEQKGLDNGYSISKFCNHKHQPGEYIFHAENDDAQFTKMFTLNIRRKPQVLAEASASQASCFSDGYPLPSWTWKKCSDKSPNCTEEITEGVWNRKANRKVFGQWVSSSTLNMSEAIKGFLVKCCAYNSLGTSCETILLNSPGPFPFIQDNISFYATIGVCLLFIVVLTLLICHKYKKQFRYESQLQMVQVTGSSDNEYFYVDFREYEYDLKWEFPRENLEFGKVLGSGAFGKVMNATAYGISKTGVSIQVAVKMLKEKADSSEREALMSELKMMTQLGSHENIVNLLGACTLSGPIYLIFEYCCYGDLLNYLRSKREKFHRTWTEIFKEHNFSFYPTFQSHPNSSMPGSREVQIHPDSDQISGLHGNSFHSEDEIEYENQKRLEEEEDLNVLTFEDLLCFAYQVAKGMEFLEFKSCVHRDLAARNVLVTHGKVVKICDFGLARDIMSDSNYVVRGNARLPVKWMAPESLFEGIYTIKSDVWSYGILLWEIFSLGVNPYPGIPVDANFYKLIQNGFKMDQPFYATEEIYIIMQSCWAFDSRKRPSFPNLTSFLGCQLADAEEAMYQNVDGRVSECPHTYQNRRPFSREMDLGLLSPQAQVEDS

Fes(h) = target: T7, Fes(h) (Homo sapiens, UniProt P07332)
T7 construct: purchased Eurofins (KinaseProfiler)
T7 sequence (P07332 whole entry): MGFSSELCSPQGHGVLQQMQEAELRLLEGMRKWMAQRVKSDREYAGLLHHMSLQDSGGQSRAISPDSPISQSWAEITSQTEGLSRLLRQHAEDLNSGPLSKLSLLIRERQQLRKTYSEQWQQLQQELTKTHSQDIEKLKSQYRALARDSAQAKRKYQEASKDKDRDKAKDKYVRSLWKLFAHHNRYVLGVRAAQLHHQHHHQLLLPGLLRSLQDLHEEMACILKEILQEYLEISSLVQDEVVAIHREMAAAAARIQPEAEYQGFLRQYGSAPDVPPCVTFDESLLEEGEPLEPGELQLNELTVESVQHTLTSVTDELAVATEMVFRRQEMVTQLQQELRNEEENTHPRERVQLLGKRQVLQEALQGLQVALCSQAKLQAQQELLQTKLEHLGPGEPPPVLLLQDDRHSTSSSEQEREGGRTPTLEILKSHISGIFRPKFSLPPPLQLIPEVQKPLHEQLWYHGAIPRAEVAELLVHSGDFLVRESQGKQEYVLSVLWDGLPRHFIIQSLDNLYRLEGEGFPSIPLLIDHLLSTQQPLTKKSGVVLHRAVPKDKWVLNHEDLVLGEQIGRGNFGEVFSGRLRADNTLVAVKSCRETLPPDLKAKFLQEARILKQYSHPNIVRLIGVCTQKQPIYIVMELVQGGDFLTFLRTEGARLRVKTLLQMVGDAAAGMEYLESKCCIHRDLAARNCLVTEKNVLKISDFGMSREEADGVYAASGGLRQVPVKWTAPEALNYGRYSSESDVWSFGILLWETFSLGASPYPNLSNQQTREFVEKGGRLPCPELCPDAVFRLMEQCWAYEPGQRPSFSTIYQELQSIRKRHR

COc1cc(OC)c(Cl)c(-c2ccc3c(NC(=O)c4ccc(N5CCNC(C)(C)C5)cc4)n[nH]c3n2)c1Cl [3D185] showed an inhibition at 0.01 µM (PKCα(h); 10 nM) of -1%, an inhibition at 0.1 µM (PKCα(h); 100 nM) of 1% and an inhibition at 1 µM (PKCα(h); 1000 nM) of 3%. For the same molecule, the inhibition at 0.01 µM (FAK(h); 10 nM) was 17%, the inhibition at 0.1 µM (FAK(h); 100 nM) was 29% and the inhibition at 1 µM (FAK(h); 1000 nM) was 58%. For the same molecule, the inhibition at 0.01 µM (PKD2(h); 10 nM) was 7%, the inhibition at 0.1 µM (PKD2(h); 100 nM) was -4% and the inhibition at 1 µM (PKD2(h); 1000 nM) was 3%. It also gave an inhibition at 0.01 µM (PI3 Kinase (p120γ)(h); 10 nM) of 0%, an inhibition at 0.1 µM (PI3 Kinase (p120γ)(h); 100 nM) of 1% and an inhibition at 1 µM (PI3 Kinase (p120γ)(h); 1000 nM) of 3%. The inhibition at 0.01 µM (CaMKIIδ(h); 10 nM) was -1%, the inhibition at 0.1 µM (CaMKIIδ(h); 100 nM) was -3% and the inhibition at 1 µM (CaMKIIδ(h); 1000 nM) was -3%. The inhibition at 0.01 µM (Flt3(h); 10 nM) was 10%, the inhibition at 0.1 µM (Flt3(h); 100 nM) was 17% and the inhibition at 1 µM (Flt3(h); 1000 nM) was 27%. For the same molecule, the inhibition at 0.01 µM (Fes(h); 10 nM) was -8%, the inhibition at 0.1 µM (Fes(h); 100 nM) was 36% and the inhibition at 1 µM (Fes(h); 1000 nM) was 91%.
